Reference: PubChem BioAssay (NCI)
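Method: 48-hour compound exposure of cells in 96-well plates, five concentrations, linear interpolation of endpoints. TGI denotes the concentration required for complete inhibition of growth.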

What was measured:
Test in all cases: NCI tumour cell line growth inhibition, 48 h
NCI-H23 lung = test system: NCI-H23 lung
ACHN renal = test system: ACHN renal
RPMI-8226 leukemia = test system: RPMI-8226 leukemia
HL-60(TB) leukemia = test system: HL-60(TB) leukemia
SF-268 CNS = test system: SF-268 CNS
MDA-N = test system: MDA-N
COLO 205 colon = test system: COLO 205 colon
MDA-MB-435 = test system: MDA-MB-435
A498 renal = test system: A498 renal
HCC-2998 colon = test system: HCC-2998 colon
DU-145 prostate = test system: DU-145 prostate
P388/ADR leukemia = test system: P388/ADR leukemia
SF-539 CNS = test system: SF-539 CNS
CAKI-1 renal = test system: CAKI-1 renal
DMS 114 small cell lung = test system: DMS 114 small cell lung
KM12 colon = test system: KM12 colon
MDA-MB-231 breast = test system: MDA-MB-231 breast
SF-295 CNS = test system: SF-295 CNS
SN12C renal = test system: SN12C renal
SW-620 colon = test system: SW-620 colon
HS 578T breast = test system: HS 578T breast
HCT-116 colon = test system: HCT-116 colon
NCI-H226 lung = test system: NCI-H226 lung
SNB-75 CNS = test system: SNB-75 CNS
EKVX NSCLC = test system: EKVX NSCLC
OVCAR-8 ovarian = test system: OVCAR-8 ovarian
MOLT-4 leukemia = test system: MOLT-4 leukemia
DMS 273 small cell lung = test system: DMS 273 small cell lung
SNB-19 CNS = test system: SNB-19 CNS
HOP-18 NSCLC = test system: HOP-18 NSCLC
HOP-62 NSCLC = test system: HOP-62 NSCLC
TK-10 renal = test system: TK-10 renal
HT29 colon = test system: HT29 colon
LOX IMVI melanoma = test system: LOX IMVI melanoma
CCRF-CEM leukemia = test system: CCRF-CEM leukemia
SR leukemia = test system: SR leukemia
PC-3 prostate = test system: PC-3 prostate
P388 leukemia = test system: P388 leukemia
UACC-62 melanoma = test system: UACC-62 melanoma
UO-31 renal = test system: UO-31 renal
UACC-257 melanoma = test system: UACC-257 melanoma
HCT-15 colon = test system: HCT-15 colon
IGROV1 ovarian = test system: IGROV1 ovarian
LXFL 529 NSCLC = test system: LXFL 529 NSCLC
OVCAR-4 ovarian = test system: OVCAR-4 ovarian
M19-MEL melanoma = test system: M19-MEL melanoma
RXF 393 renal = test system: RXF 393 renal
SK-MEL-5 melanoma = test system: SK-MEL-5 melanoma
SK-OV-3 ovarian = test system: SK-OV-3 ovarian
T-47D breast = test system: T-47D breast
U251 CNS = test system: U251 CNS
786-0 renal = test system: 786-0 renal
MALME-3M melanoma = test system: MALME-3M melanoma
BT-549 breast = test system: BT-549 breast
NCI/ADR-RES ovarian = test system: NCI/ADR-RES ovarian
A549 NSCLC = test system: A549 NSCLC
DLD-1 colon = test system: DLD-1 colon
XF 498 CNS = test system: XF 498 CNS
NCI-H460 lung = test system: NCI-H460 lung
M14 melanoma = test system: M14 melanoma
SNB-78 CNS = test system: SNB-78 CNS
NCI-H522 lung = test system: NCI-H522 lung
OVCAR-5 ovarian = test system: OVCAR-5 ovarian
HOP-92 NSCLC = test system: HOP-92 NSCLC
KM20L2 colon = test system: KM20L2 colon
SK-MEL-28 melanoma = test system: SK-MEL-28 melanoma
OVCAR-3 ovarian = test system: OVCAR-3 ovarian
K-562 leukemia = test system: K-562 leukemia
MCF7 breast = test system: MCF7 breast
SN12K1 renal = test system: SN12K1 renal
SK-MEL-2 melanoma = test system: SK-MEL-2 melanoma
RXF-631 renal = test system: RXF-631 renal

CS(=O)c1cc(=O)c2ccccc2s1 (stereo not given)
TGI (NCI-H23 lung): 15.4 µM
TGI (ACHN renal): 3.66 µM
TGI (RPMI-8226 leukemia): 9.08 µM
TGI (HL-60(TB) leukemia): 4.63 µM
TGI (SF-268 CNS): 24.5 µM
TGI (MDA-N): 7.13 µM
TGI (COLO 205 colon): 4.65 µM
TGI (MDA-MB-435): 19 µM
TGI (A498 renal): 25.4 µM
TGI (HCC-2998 colon): 16.6 µM
TGI (DU-145 prostate): 34.3 µM
TGI (P388/ADR leukemia): > 22.2 µM
TGI (SF-539 CNS): 18.4 µM
TGI (CAKI-1 renal): 6.2 µM
TGI (DMS 114 small cell lung): 9.87 µM
TGI (KM12 colon): 28.4 µM
TGI (MDA-MB-231 breast): 32.8 µM
TGI (SF-295 CNS): 32.6 µM
TGI (SN12C renal): 13.2 µM
TGI (SW-620 colon): 4.2 µM
TGI (HS 578T breast): 62.7 µM
TGI (HCT-116 colon): 5.11 µM
TGI (NCI-H226 lung): 35.5 µM
TGI (SNB-75 CNS): 24.4 µM
TGI (EKVX NSCLC): 20.5 µM
TGI (OVCAR-8 ovarian): 8.09 µM
TGI (MOLT-4 leukemia): 6.36 µM
TGI (DMS 273 small cell lung): 19.5 µM
TGI (SNB-19 CNS): 32.3 µM
TGI (HOP-18 NSCLC): 19.7 µM
TGI (HOP-62 NSCLC): 44.2 µM
TGI (TK-10 renal): 12.7 µM
TGI (HT29 colon): 12.9 µM
TGI (LOX IMVI melanoma): 9.02 µM
TGI (CCRF-CEM leukemia): 4.45 µM
TGI (SR leukemia): 4.67 µM
TGI (PC-3 prostate): 28.9 µM
TGI (P388 leukemia): 6.79 µM
TGI (UACC-62 melanoma): 17.6 µM
TGI (UO-31 renal): 22.3 µM
TGI (UACC-257 melanoma): 7.26 µM
TGI (HCT-15 colon): 6.75 µM
TGI (IGROV1 ovarian): 34.2 µM
TGI (LXFL 529 NSCLC): 2.9 µM
TGI (OVCAR-4 ovarian): 5.95 µM
TGI (M19-MEL melanoma): 11.9 µM
TGI (RXF 393 renal): 5.46 µM
TGI (SK-MEL-5 melanoma): 22.4 µM
TGI (SK-OV-3 ovarian): 39.4 µM
TGI (T-47D breast): 6.52 µM
TGI (U251 CNS): 22.1 µM
TGI (786-0 renal): 7.41 µM
TGI (MALME-3M melanoma): 4.53 µM
TGI (BT-549 breast): 27.6 µM
TGI (NCI/ADR-RES ovarian): 34.1 µM
TGI (A549 NSCLC): 38.3 µM
TGI (DLD-1 colon): 5.6 µM
TGI (XF 498 CNS): 7.57 µM
TGI (NCI-H460 lung): 35 µM
TGI (M14 melanoma): 3.12 µM
TGI (SNB-78 CNS): 27.6 µM
TGI (NCI-H522 lung): 3.07 µM
TGI (OVCAR-5 ovarian): 18.2 µM
TGI (HOP-92 NSCLC): 6.7 µM
TGI (KM20L2 colon): 13.4 µM
TGI (SK-MEL-28 melanoma): 8.97 µM
TGI (OVCAR-3 ovarian): 4.47 µM
TGI (K-562 leukemia): 7.57 µM
TGI (MCF7 breast): 14.4 µM
TGI (SN12K1 renal): 32.8 µM
TGI (SK-MEL-2 melanoma): 24.7 µM

CCCCCCCCCCCCOC(=N)N1CCOCC1
TGI (NCI-H23 lung): 27.4 µM
TGI (ACHN renal): 27.7 µM
TGI (RPMI-8226 leukemia): 5.15 µM
TGI (HL-60(TB) leukemia): 3.26 µM
TGI (RXF-631 renal): 22.6 µM
TGI (SF-268 CNS): 30.4 µM
TGI (COLO 205 colon): 3.45 µM
TGI (A498 renal): > 52.3 µM
TGI (HCC-2998 colon): 23.8 µM
TGI (SF-539 CNS): 19.1 µM
TGI (CAKI-1 renal): 17.3 µM
TGI (DMS 114 small cell lung): 19.7 µM
TGI (KM12 colon): 19.3 µM
TGI (SF-295 CNS): 31.7 µM
TGI (SN12C renal): > 52.3 µM
TGI (SW-620 colon): 16.6 µM
TGI (HCT-116 colon): 22.6 µM
TGI (NCI-H226 lung): 37.2 µM
TGI (SNB-75 CNS): 29.9 µM
TGI (EKVX NSCLC): 26.4 µM
TGI (OVCAR-8 ovarian): 33.5 µM
TGI (MOLT-4 leukemia): 6.89 µM
TGI (DMS 273 small cell lung): 25.1 µM
TGI (SNB-19 CNS): 35.5 µM
TGI (HOP-18 NSCLC): 16.3 µM
TGI (HOP-62 NSCLC): 33.3 µM
TGI (TK-10 renal): 31.6 µM
TGI (HT29 colon): 4.11 µM
TGI (LOX IMVI melanoma): 34.4 µM
TGI (CCRF-CEM leukemia): 9.44 µM
TGI (SR leukemia): 4.53 µM
TGI (UACC-62 melanoma): 24.7 µM
TGI (UO-31 renal): 26.8 µM
TGI (UACC-257 melanoma): 23.9 µM
TGI (HCT-15 colon): 16.3 µM
TGI (IGROV1 ovarian): 27.7 µM
TGI (LXFL 529 NSCLC): 15.1 µM
TGI (OVCAR-4 ovarian): 21.2 µM
TGI (M19-MEL melanoma): 17.7 µM
TGI (RXF 393 renal): 25.9 µM
TGI (SK-MEL-5 melanoma): 23.4 µM
TGI (SK-OV-3 ovarian): 34.1 µM
TGI (U251 CNS): 21.9 µM
TGI (786-0 renal): 28.4 µM
TGI (MALME-3M melanoma): 34.5 µM
TGI (A549 NSCLC): 30.4 µM
TGI (DLD-1 colon): 12.7 µM
TGI (XF 498 CNS): 29.7 µM
TGI (NCI-H460 lung): 30.2 µM
TGI (M14 melanoma): 14.1 µM
TGI (SNB-78 CNS): 27.8 µM
TGI (NCI-H522 lung): 30.4 µM
TGI (OVCAR-5 ovarian): 28.5 µM
TGI (HOP-92 NSCLC): 13.8 µM
TGI (KM20L2 colon): 13.4 µM
TGI (SK-MEL-28 melanoma): 25.3 µM
TGI (OVCAR-3 ovarian): 30.3 µM
TGI (K-562 leukemia): 7.47 µM
TGI (SK-MEL-2 melanoma): 23.9 µM
